Structure (SMILES)	logP
Cc1cc(N(CCO)CCO)ccc1/N=N/c1ccc([N+](=O)[O-])cc1[N+](=O)[O-]	2.44
Cc1cc(N(CCO)CCO)ccc1/N=N/c1c(Cl)cc([N+](=O)[O-])cc1Cl	4.12
O=C1c2ccccc2C(=O)c2c(NCCO)cccc21	2.11
Cc1cc(N(CCO)CCO)ccc1/N=N/c1c(Cl)cc([N+](=O)[O-])cc1[N+](=O)[O-]	3.15
O=[N+]([O-])c1ccc(/N=N/c2ccc(N(CCO)CCO)cc2Cl)cc1	2.93
Oc1ccc(/N=N/c2ccccc2)cc1	3.18
c1ccc2oc(-c3ccc(-c4nc5ccccc5o4)s3)nc2c1	5.97
O=C1c2ccc(O)c(O)c2C(=O)c2c(O)ccc(O)c21	2.01
O=C1c2ccccc2C(=O)C1c1nc2ccccc2cc1O	2.49
CCN(CCO)c1ccc(/N=N/c2ccc([N+](=O)[O-])cc2[N+](=O)[O-])cc1	3.11
CCN(CC)c1ccc(/N=N/c2ccc([N+](=O)[O-])cc2)cc1	4.69
O=C1c2ccccc2C(=O)c2c(NCCO)ccc(NCCO)c21	1.17
Nc1ccc(N=Nc2ccccc2)cc1	2.62
Cc1cc(Cl)cc2c1C(=O)/C(=C1\Sc3cc(Cl)cc(C)c3C1=O)S2	6.02
COc1cc(N)c2c(c1N)C(=O)c1ccccc1C2=O	1.29
CN(C)c1ccc(/N=N/c2ccccc2)cc1	4.05
Nc1c(Oc2ccccc2)cc(O)c2c1C(=O)c1ccccc1C2=O	4.68
O=[N+]([O-])c1ccc(Nc2ccccc2)c([N+](=O)[O-])c1	4.55
O=[N+]([O-])c1ccc(/N=N/c2ccc(N(CCO)CCO)cc2)c([N+](=O)[O-])c1	1.79
O=C1C(c2[nH]c3ccccc3c2O)=Nc2ccccc21	2.63
O=[N+]([O-])c1ccc(/N=N/c2ccc(N(CCO)CCO)cc2)cc1	2.05
O=[N+]([O-])c1ccc(Nc2ccc(O)cc2)c([N+](=O)[O-])c1	3.88
CNc1ccc(NCCO)c2c1C(=O)c1ccccc1C2=O	1.94
O=[N+]([O-])c1ccc(/N=N/c2ccc(Nc3ccccc3)cc2)cc1	5.07
CC(=O)Nc1ccc(/N=N/c2cc(C)ccc2O)cc1	2.85
Cc1ccc2c(c1N)C(=O)c1ccccc1C2=O	2.8
Nc1ccc(Nc2ccc([N+](=O)[O-])cc2[N+](=O)[O-])cc1	3.32
CNc1ccc(NC)c2c1C(=O)c1ccccc1C2=O	2.7
Nc1ccc(/N=N/c2ccc([N+](=O)[O-])cc2)cc1	2.37

More lines, now with the values ahead:

logP	Structure (SMILES)
2.34	O=C1c2ccccc2C(=O)c2c1ccc(O)c2O
2.97	Cc1cc(N(CCO)CCC#N)ccc1/N=N/c1ccc([N+](=O)[O-])cc1
3.37	CCN(CCO)c1ccc(/N=N/c2ccc([N+](=O)[O-])cc2)cc1
4.2	O=c1[nH]c2ccccc2c(O)c1/N=N/c1ccccc1
3.41	Cc1cc(N(CCO)CCO)ccc1/N=N/c1ccc([N+](=O)[O-])cc1Cl
4.56	Clc1ccc(/N=N/c2ccccc2)cc1
3.59	O=[N+]([O-])c1ccc(/N=N/c2ccccc2)cc1
2.34	O=C1c2ccccc2C(=O)c2c(O)ccc(O)c21
3.56	CCOc1cc(/N=N/c2c(Br)cc([N+](=O)[O-])cc2[N+](=O)[O-])c(NC(C)=O)cc1N(CCOC(C)=O)CCOC(C)=O
2.27	COc1cc([N+](=O)[O-])ccc1/N=N/c1ccc(N(CCO)CCO)cc1
4.34	CN(CCO)c1ccc(/N=N/c2c(Cl)cc([N+](=O)[O-])cc2Cl)cc1
2.7	Cc1cc(N(CCO)CCO)ccc1/N=N/c1ccccc1
4.08	CCN(CCO)c1ccc(/N=N/c2ccc([N+](=O)[O-])cc2Cl)cc1
2.7	Cc1cc(N(CCO)CCO)ccc1/N=N/c1ccc([N+](=O)[O-])cc1
1.8	Nc1ccc(O)c2c1C(=O)c1ccccc1C2=O
1.61	CNc1ccc(O)c2c1C(=O)c1c(O)ccc(NC)c1C2=O
3.79	CN(C)c1ccc(/N=N/c2ccc([N+](=O)[O-])cc2)cc1
6.66	O=C1C(c2[nH]c3c(Br)cc(Br)cc3c2O)=Nc2c(Br)cc(Br)cc21
1.84	O=C1c2ccccc2C(=O)c2c(O)c(O)cc(O)c21
2.31	OCCN(CCO)c1ccc(/N=N/c2ccccc2)cc1
2.87	CNc1cccc2c1C(=O)c1ccccc1C2=O

From the SangsterLogP compilation
